We go through two compounds from publication PMC9501900 (Molecules, 2022).

Series [1] in a line: Pharmacokinetics of gefitinib in rats, alone and coadministered with CJ (serum, LC-MS/MS). To be noted: for Change (increase) of AUC0-t of gefitinib / Change (increase) of Cmax of gefitinib: coadministration with CJ (5.0 g/kg of cranberry) vs gefitinib alone, p < 0.05; for Change (increase) of AUC0-t of gefitinib / Change (increase) of Cmax of gefitinib / AUC(0-t) / Cmax / MRT / Tmax: rats; for AUC(0-t) / Cmax / MRT / Tmax: male, Sprague-Dawley, rat, serum, po, 50 mg/kg, mean ± S.E., n = 5. It counts as in vivo. The method, then: Twelve male Sprague-Dawley rats (300–400 g) were supplied by BioLASCO Taiwan Co., Ltd. […] […] Rats were fasted for 12 h before dosing, and food was offered 3 h after drug administration. […] The serum was collected after centrifugation at 10,000× g for 15 min and stored at −20 °C until analysis.
Briefly, 50 μL of serum was partitioned with an equal volume of ethyl acetate containing erlotinib (0.5 μg/mL) as internal standard. The ethyl acetate layer was evaporated under N2 gas to dryness and reconstituted with 50 μL of acetonitrile containing 0.1% formic acid, and then 5 μL was subject to LC-MS/MS analysis.
The mobile phase consisted of 0.1% formic acid (A) and acetonitrile containing 0.1% formic acid (B), and a gradient elution was programmed as follows: A/B: 80/20 (0–1.0 min), 0/100 (1.0–3.5 min) and 80/20 (3.5–6.5 min). The flow rate was 0.2 mL/ min. Nitrogen was used as sheath gas at 50 arbitrary units and auxiliary gas at 10 arbitrary units. […] ESI-MS spectra were recorded in the positive ion mode.
Pharmacokinetic parameters were calculated by the noncompartment model of Phoenix WinNonlin® (version 8.1 Pharsight Corporation, St. Louis, MO, USA). The peak serum concentration (Cmax) was calculated based on experimental measurement. The areas under the serum concentration–time curves (AUC0-t) from time zero to last were calculated by the trapezoidal rule. Each pharmacokinetic parameter was compared among various treatment groups using one-way analysis of variance (ANOVA) with Scheffe’s test. Other studies were statistically compared using unpaired Student’s t-test. Statistical significance level was set at p < 0.05.

The conditions of series [2]: cited from earlier work.
Setting [3] is: gefitinib 50 mg/kg oral + water.
Where [4] appears, read: gefitinib 50 mg/kg oral coadministered with CJ (5.0 g/kg of cranberry).

For `COc1cc2ncnc(Nc3ccc(F)c(Cl)c3)c2cc1OCCCN1CCOCC1` [Gefitinib], in series [1], the “Change (increase) of AUC0-t of gefitinib” value is listed as “(+55%)” and the “Change (increase) of Cmax of gefitinib” value was “(+28%)”. In addition, in series [1] (listed as gefitinib), the “Change (increase) of AUC0-t of gefitinib” value is on record as 55% and the “Change (increase) of Cmax of gefitinib” value is on record as 28%. Further, in series [1] (setting [3]), the AUC(0-t) is 19500 ng·h/mL, the Cmax was 1800 ± 300 ng/mL, the MRT is 8.52 h and the Tmax is 4.4 h. In series [1] (setting [4]), the AUC(0-t) is 30300 ng·h/mL, the Cmax came out at 2300 ± 200 ng/mL, the MRT was 9.05 h and the Tmax is 3.6 h. Besides, in series [2], the Bioavailability is 57–59% and the Elimination half-life is above 24 h.

As for `Oc1cc2ncnc(Nc3ccc(F)c(Cl)c3)c2cc1OCCCN1CCOCC1` [O-desmethyl gefitinib], in series [1] (rat serum samples after oral gefitinib 50 mg/kg, calibration range 0.50–0.03 μg/mL), the “Concentrations of O-desmethyl gefitinib in serum” value is “below the LLOQ”.

A word on the AUC(0-t): it is the area under the concentration-time curve up to a stated or last time point. The term Cmax denotes the peak of the concentration-time curve. A word on the MRT: it is the average time that molecules of a dose stay in the body. As a reminder, the Tmax is the time from dosing to the highest level.
